{
  "source": "patent US11207313B2",
  "about": "“Pharmaceutical composition” (Novartis AG, priority 2017, dated 2021)",
  "type_in_all_cases": "physicochemical",
  "key": {"[1]": {"assay": "Solubility of Compound A in formulations and precipitation on storage at room temperature"}, "[2]": {"assay": "Precipitation of Compound A under dispersion in pH 6.5 buffer (microscope)", "conditions": "room temperature, after at least 6 hours, all developed formulations", "from_the_text": "Then, the precipitation of Compound A in each formulation was controlled by microscope under dispersion in pH 6.5 buffer at room temperature."}, "[3]": {"assay": "Biopharmaceutics classification and water solubility statement", "from_the_text": "The design of a pharmaceutical composition, a pharmaceutical dosage form, as well as a commercially viable process to prepare the pharmaceutical composition, for a non-bile FXR agonist, such as 2-[(1R,3R,5S)-3-({5-cyclopropyl-3-[2-(trifluoromethoxy)phenyl]-1,2-oxazol-4-yl}methoxy)-8-azabicyclo[3.2.1]octan-8-yl]-4-fluoro-1,3-benzothiazole-6-carboxylic acid, or a pharmaceutically acceptable salt thereof, is especially challenging. […] For example, due to its very high potency a low dosage is needed, generating unwanted formulation issues such as content uniformity, and additional handling restrictions on a large manufacturing scale. […] Accordingly, a suitable and robust solid pharmaceutical composition overcoming the above problems needs to be developed."}},
  "data": [
    {"smiles": "O=C(O)c1cc(F)c2nc(N3C4CCC3CC(OCc3c(-c5ccccc5OC(F)(F)F)noc3C3CC3)C4)sc2c1", "note": "[Compound A, 2-[(1R,3R,5S)-3-({5-cyclopropyl-3-[2-(trifluoromethoxy)phenyl]-1,2-oxazol-4-yl}methoxy)-8-azabicyclo[3.2.1]octan-8-yl]-4-fluoro-1,3-benzothiazole-6-carboxylic acid]", "values": [
      {"measurement": "Precipitation after storage", "setting": "[1]; 7 days storage at room temperature, all formulations", "result": "no precipitation was observed"},
      {"measurement": "Solubility of Compound A in formulations", "setting": "[1]; all formulations of Tables 1 to 3 combined with Compound A", "result": "fully soluble"},
      {"measurement": "Precipitation of Compound A under dispersion", "setting": "[2]", "result": "No precipitation"},
      {"measurement": "Biopharmaceutics classification system class", "setting": "[3]", "result": "class IV"},
      {"measurement": "Water solubility", "setting": "[3]", "result": "low water solubility"}
    ]}
  ]
}
